Reference: US20040219543A1, “Method for specifically detecting, isolating and characterizing cells from body samples by transfecting nucleic acid constructs” (priority 2001, published 2004)

Assays:
tumor cells = conditions: by inhibiting the PPARδ transcription factor; cited from earlier work
PPARδ = molecular target: T1, PPARδ (Homo sapiens, UniProt Q03181); test: PPARδ-responsive αGFPT204I reporter gene expression in transfected SW480 cells incubated with NSAIDs, flow cytometry; type: cell-based; conditions: 300 μM, 10 hour incubation of transfected SW480 cells; expression returns virtually to background level
T1 construct: Because of Wnt signal activity, SW480 cells overexpress the transcription factor PPARδ; endogenous in cells; host or cells: SW480 colon carcinoma cells
T1 sequence (Q03181 1-441): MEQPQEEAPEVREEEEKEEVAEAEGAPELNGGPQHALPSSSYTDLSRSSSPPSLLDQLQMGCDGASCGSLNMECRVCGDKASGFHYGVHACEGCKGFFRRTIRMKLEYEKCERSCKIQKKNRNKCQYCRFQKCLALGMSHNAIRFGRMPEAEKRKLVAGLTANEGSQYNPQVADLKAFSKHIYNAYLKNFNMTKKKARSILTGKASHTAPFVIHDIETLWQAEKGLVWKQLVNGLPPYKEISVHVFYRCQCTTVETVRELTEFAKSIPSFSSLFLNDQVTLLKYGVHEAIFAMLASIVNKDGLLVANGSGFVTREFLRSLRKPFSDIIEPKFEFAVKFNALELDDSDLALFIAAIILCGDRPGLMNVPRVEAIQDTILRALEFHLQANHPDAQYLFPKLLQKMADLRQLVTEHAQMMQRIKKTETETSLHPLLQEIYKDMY

## CC1=C(CC(=O)O)c2cc(F)ccc2/C1=C\c1ccc([S+](C)[O-])cc1 (stereo not shown) [sulindac]
Tumor cells
  growth of tumor cells: able to inhibit the growth of tumor cells

## COc1ccc2c(c1)c(CC(=O)O)c(C)n2C(=O)c1ccc(Cl)cc1 [indomethacin]
PPARδ
  inhibition of the observed activation of the FOP-αGFPT204I reporter gene in the presence of functional PPARδ-DNA binding sites: significantly inhibits

## CC(=O)Oc1ccccc1C(=O)O [aspirin]
Tumor cells
  growth of tumor cells: able to inhibit the growth of tumor cells

## CSc1ccc(/C=C2/C(C)=C(CC(=O)O)c3cc(F)ccc32)cc1 [Sulindac sulphide]
PPARδ
  inhibition of the observed activation of the FOP-αGFPT204I reporter gene in the presence of functional PPARδ-DNA binding sites: significantly inhibits
